{"source": "patent US9249159B2", "about": "“Composition for treating hepatitis C virus, regulating phosphorylation of replicase” (Industry-Academic Cooperation Foundation, Yonsei University, priority 2011, dated 2016)", "system": "HCV IRES", "assay": "Dual luciferase reporter assay of translation via HCV IRES in Huh7 cell", "type": "cell-based, hepatitis C virus", "details": "various concentrations, 72 hours", "excerpt": "The dual luciferase expression vector allowing cap-dependent translation of a Renilla (RLuc) reporter and HCV internal ribosome entry site (IRES)-mediated luciferase translation of a firefly luciferase (FLuc) reporter was constructed by inserting the HCV IRES and partial core protein-coding region fused to the cDNA for FLuc downstream of the Renilla luciferase reporter gene as described previously. Huh7 cells were transiently transfected with the bicistronic dual luciferase vector using Fugene HD (Roche Applied Science, Indianapolis, Ind., USA). RLuc and FLuc activities in cell lysates were quantified using the Dual-Glo luciferase assay kit (Promega) on the GloMax-Multi detection system (Promega).\nThen, in order to observe an effect of 17-DMAG on translation via HCV IRES, a dual reporter assay was carried out. The Huh7 cell was transfected by a dual reporter assay plasmid (FIG. 11B, upper diagram), and treated with 17-DMAG at various concentrations for 72 hours. […] A level of the Firefly luciferase […] and a Renilla luciferase […] was measured by dual luciferase assay and expressed in % with respect to a control treated with DMSO (first bar). […]", "data": [{"smiles": "CO[C@H]1/C=C\\C=C(/C)C(=O)NC2=CC(=O)C(NCCN(C)C)=C(C[C@@H](C)C[C@H](OC)[C@H](O)[C@@H](C)/C=C(\\C)[C@@H]1OC(N)=O)C2=O", "note": "[17-DMAG, 17-(dimethylaminoethylamino)-17-demethoxygeldanamycin]", "values": [{"measurement": "effect on translation via HCV IRES", "value": "did not have an effect"}]}]}
